The subject of one experiment is NCI-H661. Nature of the experiment: relative viability (nuclei count vs DMSO), 5 days (fraction); higher = more cells survive. Particulars: first compound 6.325 µM. The method in brief: (§1)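 Medians of duplicate plates are given as relative viability. That measure is the nuclei count in treated wells divided by the count in vehicle wells. Counts were taken on 4× images of lung cancer cell lines in 1536-well plates, 5 days after pin-tool dosing the day after seeding with one drug alone or a fixed anchor-drug dose plus five library-drug doses (not always all listed) in √10 steps.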
`COCC1(CO)C(=O)C2CCN1CC2` (stereo unspecified) [PRIMA-1MET] + Cc1cc(Nc2cc(N3CCN(C)CC3)nc(Sc3ccc(NC(=O)C4CC4)cc3)n2)n[nH]1 [Tozasertib] (partner 0.1 µM) displayed a relative viability of 0.343.

`COCC1(CO)C(=O)C2CCN1CC2` (stereo unspecified) [PRIMA-1MET] + COc1cccc2cc(-c3nc([C@H]4CC[C@H](C(=O)O)CC4)n4ncnc(N)c34)[nH]c12 [OSI-027] (partner 0.5 µM) gave a relative viability of 0.749.

Staying with this experiment, now noted: first compound 20 µM.
`COCC1(CO)C(=O)C2CCN1CC2` (stereo unspecified) [PRIMA-1MET] + CS(=O)(=O)CCNCc1ccc(-c2ccc3ncnc(Nc4ccc(OCc5cccc(F)c5)c(Cl)c4)c3c2)o1 [Lapatinib] (partner 2 µM) yielded a relative viability of 0.266.

`COCC1(CO)C(=O)C2CCN1CC2` (stereo unspecified) [PRIMA-1MET] + O=C(CCCCCCC(=O)Nc1ccccc1)NO [Vorinostat] (partner 1 µM) came in with a relative viability of 0.759.

For the compound `COCC1(CO)C(=O)C2CCN1CC2` (stereo unspecified) [PRIMA-1MET] + Cc1cc(Nc2cc(N3CCN(C)CC3)nc(Sc3ccc(NC(=O)C4CC4)cc3)n2)n[nH]1 [Tozasertib] (partner 0.1 µM), the relative viability was found to be 0.353.

In turn, `COCC1(CO)C(=O)C2CCN1CC2` (stereo unspecified) [PRIMA-1MET] + COc1cccc2cc(-c3nc([C@H]4CC[C@H](C(=O)O)CC4)n4ncnc(N)c34)[nH]c12 [OSI-027] (partner 0.5 µM) showed a relative viability of 0.622.

The next experiment concerns SK-MES-1. The description is as above. To be noted: first compound 0.2 µM. The method in brief: as §1
On to `COCC1(CO)C(=O)C2CCN1CC2` (stereo unspecified) [PRIMA-1MET] + CS(=O)(=O)CCNCc1ccc(-c2ccc3ncnc(Nc4ccc(OCc5cccc(F)c5)c(Cl)c4)c3c2)o1 [Lapatinib] (partner 2 µM), for which the relative viability was found to be 0.571.

`COCC1(CO)C(=O)C2CCN1CC2` (stereo unspecified) [PRIMA-1MET] + O=C(CCCCCCC(=O)Nc1ccccc1)NO [Vorinostat] (partner 1 µM) displayed a relative viability of 1.26.

For the compound `COCC1(CO)C(=O)C2CCN1CC2` (stereo unspecified) [PRIMA-1MET] + Cc1cc(Nc2cc(N3CCN(C)CC3)nc(Sc3ccc(NC(=O)C4CC4)cc3)n2)n[nH]1 [Tozasertib] (partner 0.1 µM), the relative viability came to 1.02.

`COCC1(CO)C(=O)C2CCN1CC2` (stereo unspecified) [PRIMA-1MET] + COc1cccc2cc(-c3nc([C@H]4CC[C@H](C(=O)O)CC4)n4ncnc(N)c34)[nH]c12 [OSI-027] (partner 0.5 µM) returned a relative viability of 0.65.

The same experiment, now with this note: first compound 0.6325 µM.
Regarding `COCC1(CO)C(=O)C2CCN1CC2` (stereo unspecified) [PRIMA-1MET] + CS(=O)(=O)CCNCc1ccc(-c2ccc3ncnc(Nc4ccc(OCc5cccc(F)c5)c(Cl)c4)c3c2)o1 [Lapatinib] (partner 2 µM), the relative viability is 0.365.

`COCC1(CO)C(=O)C2CCN1CC2` (stereo unspecified) [PRIMA-1MET] + O=C(CCCCCCC(=O)Nc1ccccc1)NO [Vorinostat] (partner 1 µM) had a relative viability of 1.08.

The compound `COCC1(CO)C(=O)C2CCN1CC2` (stereo unspecified) [PRIMA-1MET] + Cc1cc(Nc2cc(N3CCN(C)CC3)nc(Sc3ccc(NC(=O)C4CC4)cc3)n2)n[nH]1 [Tozasertib] (partner 0.1 µM) returned a relative viability of 0.888.

`COCC1(CO)C(=O)C2CCN1CC2` (stereo unspecified) [PRIMA-1MET] + COc1cccc2cc(-c3nc([C@H]4CC[C@H](C(=O)O)CC4)n4ncnc(N)c34)[nH]c12 [OSI-027] (partner 0.5 µM) came in with a relative viability of 0.711.

Staying with this experiment, now noted: first compound 2 µM.
The compound `COCC1(CO)C(=O)C2CCN1CC2` (stereo unspecified) [PRIMA-1MET] + CS(=O)(=O)CCNCc1ccc(-c2ccc3ncnc(Nc4ccc(OCc5cccc(F)c5)c(Cl)c4)c3c2)o1 [Lapatinib] (partner 2 µM) had a relative viability of 0.448.

In turn, `COCC1(CO)C(=O)C2CCN1CC2` (stereo unspecified) [PRIMA-1MET] + O=C(CCCCCCC(=O)Nc1ccccc1)NO [Vorinostat] (partner 1 µM) gave a relative viability of 1.05.

As for `COCC1(CO)C(=O)C2CCN1CC2` (stereo unspecified) [PRIMA-1MET] + Cc1cc(Nc2cc(N3CCN(C)CC3)nc(Sc3ccc(NC(=O)C4CC4)cc3)n2)n[nH]1 [Tozasertib] (partner 0.1 µM), the relative viability is 0.962.

In turn, `COCC1(CO)C(=O)C2CCN1CC2` (stereo unspecified) [PRIMA-1MET] + COc1cccc2cc(-c3nc([C@H]4CC[C@H](C(=O)O)CC4)n4ncnc(N)c34)[nH]c12 [OSI-027] (partner 0.5 µM) had a relative viability of 0.543.

The experiment is the same for the next values; noted with them: first compound 6.325 µM.
As for `COCC1(CO)C(=O)C2CCN1CC2` (stereo unspecified) [PRIMA-1MET] + CS(=O)(=O)CCNCc1ccc(-c2ccc3ncnc(Nc4ccc(OCc5cccc(F)c5)c(Cl)c4)c3c2)o1 [Lapatinib] (partner 2 µM), the relative viability was found to be 0.477.

`COCC1(CO)C(=O)C2CCN1CC2` (stereo unspecified) [PRIMA-1MET] + O=C(CCCCCCC(=O)Nc1ccccc1)NO [Vorinostat] (partner 1 µM) displayed a relative viability of 1.24.

For `COCC1(CO)C(=O)C2CCN1CC2` (stereo unspecified) [PRIMA-1MET] + Cc1cc(Nc2cc(N3CCN(C)CC3)nc(Sc3ccc(NC(=O)C4CC4)cc3)n2)n[nH]1 [Tozasertib] (partner 0.1 µM), the relative viability was determined as 0.876.

Take `COCC1(CO)C(=O)C2CCN1CC2` (stereo unspecified) [PRIMA-1MET] + COc1cccc2cc(-c3nc([C@H]4CC[C@H](C(=O)O)CC4)n4ncnc(N)c34)[nH]c12 [OSI-027] (partner 0.5 µM): the relative viability is 0.633.

Still in this experiment, the particulars now being: first compound 20 µM.
For `COCC1(CO)C(=O)C2CCN1CC2` (stereo unspecified) [PRIMA-1MET] + CS(=O)(=O)CCNCc1ccc(-c2ccc3ncnc(Nc4ccc(OCc5cccc(F)c5)c(Cl)c4)c3c2)o1 [Lapatinib] (partner 2 µM), the relative viability was found to be 0.516.

The compound `COCC1(CO)C(=O)C2CCN1CC2` (stereo unspecified) [PRIMA-1MET] + O=C(CCCCCCC(=O)Nc1ccccc1)NO [Vorinostat] (partner 1 µM) gave a relative viability of 1.18.

Turning to `COCC1(CO)C(=O)C2CCN1CC2` (stereo unspecified) [PRIMA-1MET] + Cc1cc(Nc2cc(N3CCN(C)CC3)nc(Sc3ccc(NC(=O)C4CC4)cc3)n2)n[nH]1 [Tozasertib] (partner 0.1 µM), the relative viability is 0.907.

In the case of `COCC1(CO)C(=O)C2CCN1CC2` (stereo unspecified) [PRIMA-1MET] + COc1cccc2cc(-c3nc([C@H]4CC[C@H](C(=O)O)CC4)n4ncnc(N)c34)[nH]c12 [OSI-027] (partner 0.5 µM), the relative viability amounted to 0.436.

These data come from the supplement of paper PMC10307832.
